Here are results for 18 compounds from ChEMBL document CHEMBL4406914, “Impact of Minor Structural Modifications on Properties of a Series of mTOR Inhibitors” (ACS Med Chem Lett, 2019).

The nature of data set [1]: Kinetic aqueous solubility of compound in phosphate buffer at pH 7.4 at 100 uM at 20 degree C shaken for 24 hrs by HPLC analysis. It counts as physicochemical. Conditions: read-out: Kinetic_solubility.
Data set [2] in a line: Lipophilicity, ChromlogD of compound at 0.5 mM at pH 6.5 by UPLC-UV analysis. As to conditions: buffer, pH 6.5, 500 µM.
The target in data set [3] is mTORC1 (Homo sapiens, UniProt P42345). Kind of data set: Inhibition of mTORC1 in human A431 cells assessed as S6RP phosphorylation incubated for 3 hrs by HTRF assay. It counts as cell-based.
Data set [4] concerns the target mTORC2 (Homo sapiens, UniProt P42345). Kind of data set: Inhibition of mTORC2 in human A431 cells assessed as AKT phosphorylation at S473 residue incubated for 3 hrs by HTRF assay. It counts as cell-based. (In TR-FRET formats the signal depends on donor and acceptor labels being close together.)
The target of data set [5] is Serine/threonine-protein kinase mTOR (Homo sapiens, UniProt P42345). The data set can be described thus: Inhibition of human recombinant GST-tagged mTOR catalytic domain (1360 to 2549 residues) expressed in baculovirus expression system using GFP-4E-BP1 peptide as substrate incubated for 1 hr by LanthaScreen assay.
Data set [6] addresses Phosphatidylinositol 4,5-bisphosphate 3-kinase catalytic subunit alpha isoform (Homo sapiens, UniProt P42336).
Description: Inhibition of PI3Kalpha (unknown origin) using PIP2 as substrate measured after 30 mins by TR-FRET assay
The nature of data set [7]: Hepatic intrinsic clearance in human Hepatocytes assessed per at 1 uM measured upto 90 mins by LC-MS/MS analysis. The class given is ADME, cell-based, Hepatocyte. As to conditions: 1.5 h.
A short description of data set [8]: Metabolic stability in human liver microsomes assessed as parent compound remaining at 1 uM measured at 15 mins in presence of phase 1 metabolism cofactors by LC-MS/MS analysis. Conditions: read-out: Stability. It counts as ADME, Microsome. For orientation: Microsomes from liver hold many membrane-bound enzymes, among them those of drug oxidation.

≈ marks a conversion by molar mass, not a printed value.

By IC50 is commonly meant the concentration at which inhibition is half-maximal. The term Ki denotes a measure of affinity in units of concentration, obtained from inhibition or displacement.

Chain of Phosphatidylinositol 4,5-bisphosphate 3-kinase catalytic subunit alpha isoform (P42336 whole entry, canonical isoform): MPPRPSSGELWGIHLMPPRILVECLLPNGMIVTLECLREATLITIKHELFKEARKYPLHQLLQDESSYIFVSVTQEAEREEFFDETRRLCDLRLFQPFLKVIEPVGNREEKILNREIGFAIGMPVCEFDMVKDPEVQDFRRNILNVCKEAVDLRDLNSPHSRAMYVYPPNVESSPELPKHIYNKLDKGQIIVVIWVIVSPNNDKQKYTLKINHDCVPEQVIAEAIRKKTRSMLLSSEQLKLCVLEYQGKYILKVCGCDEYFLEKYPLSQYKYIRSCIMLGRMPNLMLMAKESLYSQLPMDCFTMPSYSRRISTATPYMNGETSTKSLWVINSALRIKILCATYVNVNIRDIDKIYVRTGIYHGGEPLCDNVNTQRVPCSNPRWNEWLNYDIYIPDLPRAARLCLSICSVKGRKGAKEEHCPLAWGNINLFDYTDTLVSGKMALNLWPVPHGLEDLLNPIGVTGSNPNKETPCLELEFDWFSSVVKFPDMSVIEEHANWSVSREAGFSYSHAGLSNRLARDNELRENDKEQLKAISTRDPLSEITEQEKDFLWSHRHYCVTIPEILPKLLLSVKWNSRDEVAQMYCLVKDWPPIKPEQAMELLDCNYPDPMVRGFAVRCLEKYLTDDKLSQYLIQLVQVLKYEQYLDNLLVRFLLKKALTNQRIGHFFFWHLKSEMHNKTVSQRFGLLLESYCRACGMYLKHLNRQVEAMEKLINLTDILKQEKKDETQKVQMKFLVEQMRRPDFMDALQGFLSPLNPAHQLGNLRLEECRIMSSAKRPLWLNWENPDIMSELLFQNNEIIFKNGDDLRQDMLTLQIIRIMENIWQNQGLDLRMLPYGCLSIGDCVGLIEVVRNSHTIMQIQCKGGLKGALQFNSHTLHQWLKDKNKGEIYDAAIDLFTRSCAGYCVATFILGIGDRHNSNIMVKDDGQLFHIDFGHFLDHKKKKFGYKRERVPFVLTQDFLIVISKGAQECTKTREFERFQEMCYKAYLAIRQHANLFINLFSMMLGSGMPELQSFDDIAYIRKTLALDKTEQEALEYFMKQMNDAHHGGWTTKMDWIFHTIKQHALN

On to `CCCCn1nc(-c2ccc3oc(N)nc3c2)c2c(Cl)nc(N)nc21`, for which the solubility kinetic at 24 h, 100 µM in data set [1] was less than 1 µM. This compound registered a ChromlogD6.5 in data set [2] of 2.3. Besides, the IC50 was determined as 7 nM in data set [3] and 20 nM in data set [4]. Further, the Ki in data set [5] was 11 nM; in data set [6] it was 4600 nM.
As to `CC(C)n1nc(-c2ccc3oc(N)nc3c2)c2c(C#N)nc(N)nc21`, the CLH in data set [7] is less than 5 µL/min. Moreover, the solubility kinetic at 24 h, 100 µM in data set [1] is less than 1 µM. Moreover, the ChromlogD6.5 in data set [2] is listed as 1.8. For the same compound, the Ki in data set [5] is 2200 nM; in data set [6], greater than 10000 nM. Also, in data set [8], the remaining at 0.25 h, 1 µM was greater than 95%.
Regarding `CCCCn1nc(-c2ccc3oc(N)nc3c2)c2c(C)nc(N)nc21`, the solubility kinetic at 24 h, 100 µM in data set [1] came out at 5.2 µM (≈ 1.75 µg/mL). The same compound returned a ChromlogD6.5 in data set [2] of 1.4. Moreover, the half-inhibitory concentration (IC50) in data set [3] stood at 30 nM; in data set [4], 90 nM. In addition, the Ki in data set [5] was determined as 33 nM; in data set [6], 2200 nM.
Consider `COc1nc(N)nc2c1c(-c1ccc3oc(N)nc3c1)nn2C(C)C`, for which the solubility kinetic at 24 h, 100 µM in data set [1] is less than 1 µM. Further, the ChromlogD6.5 in data set [2] is 1.6. In addition, the IC50 in data set [3] was found to be 420 nM; in data set [4], 680 nM. The inhibition constant (Ki) in data set [5] amounted to 370 nM; in data set [6] it was 250 nM. Moreover, the remaining at 0.25 h, 1 µM in data set [8] was greater than 95%.
Take `Cc1nc2c(c(-c3ccc4oc(N)nc4c3)nn2C(C)C)c(=O)[nH]1`: in data set [7], the CLH was less than 5 µL/min. Further, in data set [1], the solubility kinetic at 24 h, 100 µM amounted to 3 µM (≈ 0.973 µg/mL). The compound further showed a ChromlogD6.5 in data set [2] of 1.2. In addition, the IC50 in data set [3] came to 45 nM; in data set [4], 90 nM. For the same compound, the Ki in data set [5] was 40 nM; in data set [6], greater than 10000 nM. Further, the remaining at 0.25 h, 1 µM in data set [8] is greater than 95%.
As for `CC(C)n1nc(-c2ccc3oc(N)nc3c2)c2c(Br)nc(N)nc21`, the CLH in data set [7] was 55 µL/min. In data set [1], the solubility kinetic at 24 h, 100 µM is 4 µM (≈ 1.55 µg/mL). Moreover, the ChromlogD6.5 in data set [2] was found to be 1.8. The concentration for half-maximal inhibition (IC50) worked out at 35 nM in data set [3] and 60 nM in data set [4]. Also, the Ki in data set [5] is 21 nM; in data set [6], 1000 nM. For the same compound, the remaining at 0.25 h, 1 µM in data set [8] was found to be 94%.
Turning to `Cc1nc(N)nc2c1c(-c1ccc3oc(N)nc3c1)nn2C(C)C`, the CLH in data set [7] was less than 5 µL/min. Further, the solubility kinetic at 24 h, 100 µM in data set [1] was determined as 74 µM (≈ 23.9 µg/mL). In addition, in data set [2], the ChromlogD6.5 turned out to be 0.8. For the same compound, the IC50 in data set [3] is 40 nM; in data set [4], 200 nM. In addition, the Ki in data set [5] amounted to 62 nM; in data set [6], 990 nM. For the same compound, the remaining at 0.25 h, 1 µM in data set [8] was greater than 95%.
In data set [7], `CNc1nc2c(c(-c3ccc4oc(N)nc4c3)nn2C(C)C)c(=O)[nH]1` returned a CLH of less than 5 µL/min. Also, in data set [1], the solubility kinetic at 24 h, 100 µM was less than 1 µM. The same compound displayed a ChromlogD6.5 in data set [2] of 1.5. Moreover, the values for the IC50 in data set [3] and in data set [4] were 240 nM and 360 nM, respectively. For the same compound, the inhibition constant Ki is 190 nM in data set [5] and greater than 10000 nM in data set [6]. The remaining at 0.25 h, 1 µM in data set [8] is greater than 95%.
Consider `CC(C)n1nc(-c2ccc3oc(N)nc3c2)c2cnc(N)nc21`, for which the CLH in data set [7] was 150 µL/min. Also, the solubility kinetic at 24 h, 100 µM in data set [1] was determined as 1.6 µM (≈ 0.495 µg/mL). In addition, the ChromlogD6.5 in data set [2] stood at 1.1. In addition, the IC50 in data set [3] stood at 7 nM; in data set [4], 15 nM. Also, the Ki in data set [5] is 6 nM; in data set [6], 780 nM. Also, in data set [8], the remaining at 0.25 h, 1 µM came out at 94%.
In the case of `CC(C)n1nc(-c2ccc3oc(N)nc3c2)c2c(Cl)nc(N)nc21`, the CLH in data set [7] stood at 11 µL/min. In data set [1], the solubility kinetic at 24 h, 100 µM was 2 µM (≈ 0.688 µg/mL). This compound registered a ChromlogD6.5 in data set [2] of 1.7. The IC50 in data set [3] was determined as 8 nM; in data set [4] it was 20 nM. Moreover, affinity in data set [6] was put at a Ki of 920 nM. In addition, in data set [8], the remaining at 0.25 h, 1 µM stood at 92%.
Turning to `CC(C)n1nc(-c2ccc3oc(N)nc3c2)c2c(N)ncnc21` [SAPANISERTIB], the CLH in data set [7] is less than 5 µL/min. In addition, the solubility kinetic at 24 h, 100 µM in data set [1] was determined as 82 µM (≈ 25.4 µg/mL). This compound had a ChromlogD6.5 in data set [2] of 0.4. In addition, in data set [8], the remaining at 0.25 h, 1 µM is greater than 95%.
The compound `CC(C)n1nc(-c2ccc3oc(N)nc3c2)c2c(C(F)(F)F)nc(N)nc21` had a CLH in data set [7] of less than 5 µL/min. Further, the solubility kinetic at 24 h, 100 µM in data set [1] is less than 1 µM. The ChromlogD6.5 in data set [2] stood at 2.4. The figures for the inhibition constant (Ki) in data set [5] and in data set [6] were 2300 nM and greater than 10000 nM, respectively. Also, in data set [8], the remaining at 0.25 h, 1 µM was greater than 95%.
In data set [7], `CC(C)n1nc(-c2ccc3oc(N)nc3c2)c2c(=O)[nH]c(N)nc21` came in with a CLH of less than 5 µL/min. The solubility kinetic at 24 h, 100 µM in data set [1] is 9.2 µM (≈ 2.99 µg/mL). In addition, in data set [2], the ChromlogD6.5 was determined as 0.4. Also, the IC50 in data set [3] was 40 nM; in data set [4], 200 nM. Besides, the Ki in data set [5] is 20 nM; in data set [6], 3200 nM. In data set [8], the remaining at 0.25 h, 1 µM is greater than 95%.
Turning to `CCc1nc(N)nc2c1c(-c1ccc3oc(N)nc3c1)nn2C(C)C`, in data set [7], the CLH was less than 5 µL/min. Moreover, the solubility kinetic at 24 h, 100 µM in data set [1] worked out at 62 µM (≈ 20.9 µg/mL). In data set [2], this compound registered a ChromlogD6.5 of 1.2. For the same compound, the IC50 in data set [3] stood at 60 nM; in data set [4] it was 140 nM. The Ki in data set [5] was found to be 50 nM; in data set [6], 85 nM. The remaining at 0.25 h, 1 µM in data set [8] came to 93%.
As for `CC(C)n1nc(-c2ccc3oc(N)nc3c2)c2c(=O)[nH]c(N(C)C)nc21`, in data set [7], the CLH is less than 5 µL/min. In addition, the solubility kinetic at 24 h, 100 µM in data set [1] was found to be 2 µM (≈ 0.707 µg/mL). The ChromlogD6.5 in data set [2] was determined as 2.1. The Ki in data set [5] was 1700 nM; in data set [6] it was greater than 10000 nM. The remaining at 0.25 h, 1 µM in data set [8] was 90%.
For the compound `CC(C)n1nc(-c2ccc3oc(N)nc3c2)c2c(CO)nc(N)nc21`, the CLH in data set [7] is less than 5 µL/min. Besides, the solubility kinetic at 24 h, 100 µM in data set [1] is 82 µM (≈ 27.8 µg/mL). Besides, in data set [2], the ChromlogD6.5 was 0.2. Moreover, the Ki in data set [5] is 4000 nM; in data set [6] it was greater than 10000 nM. Also, in data set [8], the remaining at 0.25 h, 1 µM is greater than 95%.
Take `CC(C)n1nc(-c2ccc3oc(N)nc3c2)c2c(N)nc(N)nc21`: the CLH in data set [7] was less than 5 µL/min. Also, the solubility kinetic at 24 h, 100 µM in data set [1] is 88 µM (≈ 28.5 µg/mL). Moreover, the ChromlogD6.5 in data set [2] was -0.1. Besides, the IC50 in data set [3] came to 4 nM; in data set [4], 11 nM. Further, the inhibition constant Ki came out at 4 nM in data set [5] and 150 nM in data set [6]. In data set [8], the remaining at 0.25 h, 1 µM is greater than 95%.
Regarding `CC(C)n1nc(-c2ccc3oc(N)nc3c2)c2c(F)nc(N)nc21`, the CLH in data set [7] came to 57 µL/min. In addition, the solubility kinetic at 24 h, 100 µM in data set [1] was less than 1 µM. Further, the ChromlogD6.5 in data set [2] was found to be 1.8. In addition, the IC50 is 40 nM in data set [3] and 80 nM in data set [4]. The inhibitory constant (Ki) in data set [5] was determined as 13 nM; in data set [6], 2600 nM. In data set [8], the remaining at 0.25 h, 1 µM is 83%.
